Test results as given in patent US6680335B2, “Methods of modulating protein tyrosine kinase function with substituted indolinone compounds” (Sugen, Inc., priority 1998, dated 2004).

Key:
[1] = molecular target: T1, src protein kinase (Gallus gallus, UniProt P00523); test: Assay measuring SRC protein kinase activity (phosphorylation of a biotinylated peptide); format: biochemical; settings: src from transformed yeast lysate, 5 μM ATP; for inhibition at 100 µM: compound at 100 μM; for IC50: cells without %
T1 construct: made in house; host or cells: Schizosaccharomyces pombe strain SP200, pRSP expression plasmids
Protocol: This assay is used to determine src protein kinase activity measuring phosphorylation of a biotinylated peptide as the readout.
a. Yeast transformed with src.
b. Cell lysates: Yeast cells expressing src are pelleted, washed once with water, re-pelleted and stored at −80° C. until use.
(§1) c. N-terminus biotinylated […] is prepared by standard procedures well known to those skilled in the art.
(§2) h. […] S. Pombe strain SP200 (h-s leul.32 ura4 ade21O) was grown as described and transformations were pRSP expression plasmids were done by the lithium acetate method (Superti-Furga, supra). Cells were grown in the presence of 1 μM thiamine to repress expression from the nmtl promoter or in the absence of thiamine to induce expression.
a. Preparation of src coated ELISA plate.
1. Coat ELISA plate with 0.5 μg/well anti-src mab in 100 μL of pH 9.6 sodium carbonate buffer at 4° C. overnight.
(§3) 2. Wash wells once with PBS.
(§4) 3. Block plate with 0.15 mL 5% milk in PBS for 30 min. at room temperature.
(§5) 4. Wash plate 5× with PBS.
5. Add 10 μg/well of src transformed yeast lysates diluted in Lysis Buffer (0.1 mL total volume per well). (Amount of lysate may vary between hatches.) Shake plate for 20 minutes at room temperature.
(§6) b. Preparation of phosphotyrosine antibody-coated ELISA plate.
(§7) 1. 4G10 plate: coat 0.5 μg/well 4G10 in 100 μL PBS overnight at 4° C. and block with 150 μL of 5% milk in PBS for 30 minutes at room temperature.
(§8) c. Kinase assay procedure.
(§9) 1. Remove unbound proteins from steps 1-7, above, and wash plates 5× with PBS.
2. Add 0.08 mL Kinase Reaction Mixture per well (containing 10 μL of 10×Kinase Buffer and 10 μM (final concentration) biotin-[…] per well diluted in water.
(§10) 3. Add 10 μL of compound diluted in water containing 10% DMSO and pre-incubate for 15 minutes at room temperature.
(§11) 4. Start kinase reaction by adding 10 μL/well of 0.05 mM ATP in water (5 μM ATP final).
(§12) 5. Shake ELISA plate for 15 min. at room temperature.
(§13) 6. Stop kinase reaction by adding 10 μL of 0.5 M EDTA per well.
(§14) 7. Transfer 90 μL supernatant to a blocked 4G10 coated ELISA plate from section B, above.
(§15) 8. Incubate for 30 min. while shaking at room temperature.
(§16) 9. Wash plate 5× with TBST.
(§17) 10. Incubate with Vectastain ELITE ABC reagent (100 μL/well) for 30 min. at room temperature.
(§18) 11. Wash the wells 5× with TBST.
(§19) 12. Develop with Turbo TMB.
(§20) The IC50 values were measured for several of the compounds of the invention.

[2] = molecular target: T2, pyk-2 protein kinase (Homo sapiens, UniProt Q14289); test: Assay measuring PYK-2 protein kinase activity (phosphorylation of a biotinylated peptide); format: biochemical; settings: pyk-2 from transformed yeast lysate, 5 μM ATP; for inhibition at 100 µM: compound at 100 μM; for IC50: cells without %
T2 construct: made in house; host or cells: Schizosaccharomyces pombe strain SP200, pRSP expression plasmids
T2 sequence (Q14289 whole entry): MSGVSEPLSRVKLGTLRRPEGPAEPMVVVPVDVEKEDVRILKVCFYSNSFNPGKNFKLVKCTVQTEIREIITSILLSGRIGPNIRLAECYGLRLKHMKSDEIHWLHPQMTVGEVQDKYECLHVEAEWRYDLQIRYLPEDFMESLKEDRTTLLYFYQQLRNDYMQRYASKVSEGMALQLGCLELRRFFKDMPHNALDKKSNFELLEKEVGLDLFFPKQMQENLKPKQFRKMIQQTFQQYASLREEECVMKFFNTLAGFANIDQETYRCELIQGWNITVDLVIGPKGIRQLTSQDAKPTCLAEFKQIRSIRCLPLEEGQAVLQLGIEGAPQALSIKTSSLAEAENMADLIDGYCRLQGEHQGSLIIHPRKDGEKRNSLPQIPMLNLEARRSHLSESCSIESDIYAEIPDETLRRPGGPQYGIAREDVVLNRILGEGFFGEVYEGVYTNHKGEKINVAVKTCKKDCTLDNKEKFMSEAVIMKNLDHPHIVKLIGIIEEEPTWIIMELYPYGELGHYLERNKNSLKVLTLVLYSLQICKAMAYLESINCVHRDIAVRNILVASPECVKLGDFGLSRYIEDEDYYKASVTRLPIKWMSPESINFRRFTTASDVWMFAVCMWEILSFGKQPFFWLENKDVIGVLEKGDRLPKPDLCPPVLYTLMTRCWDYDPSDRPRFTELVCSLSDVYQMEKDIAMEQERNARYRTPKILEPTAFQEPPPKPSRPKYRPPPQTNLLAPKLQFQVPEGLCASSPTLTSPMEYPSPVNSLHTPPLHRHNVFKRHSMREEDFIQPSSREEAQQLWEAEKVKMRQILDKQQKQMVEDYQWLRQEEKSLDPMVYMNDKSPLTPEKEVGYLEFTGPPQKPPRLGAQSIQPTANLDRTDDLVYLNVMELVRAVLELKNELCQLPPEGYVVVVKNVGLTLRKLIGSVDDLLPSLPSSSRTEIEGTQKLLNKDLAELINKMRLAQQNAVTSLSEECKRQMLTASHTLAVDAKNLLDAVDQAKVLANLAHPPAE
Protocol: This assay is used to determine pyk-2 protein kinase activity measuring phosphorylation of a biotinylated peptide as the readout.
a. Yeast transformed with pyk-2.
b. Cell lysates: Yeast cells expressing pyk-2 are pelleted, washed once with water, re-pelleted and stored at −80° C. until use.
as §1, §2
a. Preparation of pyk-2 coated ELISA plate.
1. Coat ELISA plate with 0.5 μg/well anti-pyk-2 mab in 100 μL of pH 9.6 sodium carbonate buffer at 4° C. overnight.
as §3, §4, §5
5. Add 10 μg/well of pyk-2 transformed yeast lysates diluted in Lysis Buffer (0.1 mL total volume per well). (Amount of lysate may vary between hatches.) Shake plate for 20 minutes at room temperature.
as §6, §7, §8, §9
2. Add 0.08 mL Kinase Reaction Mixture per well (containing […] of 10×Kinase Buffer and 10 pM (final concentration) biotin-[…] per well diluted in water.
as §10, §11, §12, §13, §14, §15, §16, §17, §18, §19, §20

| Compound | inhibition at 100 µM [1] | inhibition at 100 µM [2] | IC50 [2] | IC50 [1] |
| --- | --- | --- | --- | --- |
| Cc1c(/C=C2\C(=O)Nc3ccc(Cl)cc32)[nH]c2ccccc12 [IN-017, 5-Chloro-3-(3-methyl-1H-indol-2-ylmethylene)-1,3-dihydro-indol-2-one] | 21.4% | -12% |  |  |
| Cc1c(/C=C2\C(=O)Nc3ccccc32)[nH]c2ccccc12 [IN-016, 3-(3-Methyl-1H-indol-2-ylmethylene)-1,3-dihydro-indol-2-one] | 20.2% | -12.5% |  |  |
| Cc1ccc2c(c1)/C(=C/c1[nH]c3ccccc3c1C)C(=O)N2 [IN-001, 5-Methyl-3-(3-methyl-1H-indol-2-ylmethylene)-1,3-dihydro-indol-2-one] | -62% | -16% |  |  |
| NS(=O)(=O)c1ccc2c(c1)/C(=C/c1cc3ccccc3[nH]1)C(=O)N2 [IN-008, 3-(1H-Indol-2-ylmethylene)-2-oxo-2,3-dihydro-1H-indole-5-sulfonic acid amide] | -11% |  | 9.6 µM |  |
| CC(=O)c1ccc2c(c1)C(=Cc1cc3ccccc3[nH]1)C(=O)N2 [IN-007, 5-Acetyl-3-(1H-indol-2-ylmethylene)-1,3-dihydro-indol-2-one] | 12.4% | 17.9% |  |  |
| CC(=O)c1ccc2c(c1)C(=Cc1[nH]c3ccccc3c1C)C(=O)N2 [IN-006, 5-Acetyl-3-(3-methyl-1H-indol-2-ylmethylene)-1,3-dihydro-indol-2-one] |  | 27% |  | > 100 µM |
| Cc1c(/C=C2\C(=O)Nc3ccc(Br)cc32)[nH]c2ccccc12 [IN-018, 5-Bromo-3-(3-methyl-1H-indol-2-ylmethylene)-1,3-dihydro-indol-2-one] | 19.5% | 62% |  |  |
| Cc1c(/C=C2\C(=O)Nc3ccc(S(N)(=O)=O)cc32)[nH]c2ccccc12 [IN-002, 3-(3-Methyl-1H-indol-2-ylmethylene)-2-oxo-2,3-dihydro-1H-indole-5-sulfonic acid amide] | -3.5% | 46.7% |  |  |
| O=C1Nc2ccc(Cl)cc2/C1=C/c1cc2ccccc2[nH]1 [IN-013, 5-chloro-3-(1H-indol-2-ylmethylene)-1,3-dihydro-indol-2-one] | -0.6% | -12% |  |  |
| Cc1c(/C=C2\C(=O)Nc3ccc(C(=O)O)cc32)[nH]c2ccccc12 [IN-005, 3-(3-Methyl-1H-indol-2-ylmethylene)-2-oxo-2,3-dihydro-1H-indole-5-carboxylic acid] |  |  | 0.22 µM |  |
| Nc1ccc2c(c1)/C(=C/c1cc3ccccc3[nH]1)C(=O)N2 [IN-009, 5-Amino-3-(1H-indol-2-ylmethylene)-1,3-dihydro-indol-2-one] |  |  | 0.68 µM | 9 µM |
| O=C1Nc2cc(Cl)ccc2/C1=C/c1cc2ccccc2[nH]1 [IN-011, 6-Chloro-3-(1H-indol-2-ylmethylene)-1,3-dihydro-indol-2-one] | -38.5% | 7.4% |  |  |
| Cc1cccc2c1/C(=C/c1[nH]c3ccccc3c1C)C(=O)N2 [IN-019, 4-Methyl-3-(3-methyl-1H-indol-2-ylmethylene)-1,3-dihydro-indol-2-one] | -6.5% | -36% |  |  |
| O=C1Nc2ccccc2/C1=C/c1cc2ccccc2[nH]1 [IN-012, 3-(1H-Indol-2-ylmethylene)-1,3-dihydro-indol-2-one] | -12% | 5.1% |  |  |
| O=C1Nc2ccc(C(=O)O)cc2/C1=C/c1cc2ccccc2[nH]1 [IN-010, 3-(1H-Indol-2-ylmethylene)-2-oxo-2,3-dihydro-1H-indole-5-carboxylic acid] | 36.4% |  | 3.4 µM |  |
